# Results taken from PMC10139140, “Synthesis of Novel 2-(Cyclopentylamino)thiazol-4(5H)-one Derivatives with Potential Anticancer, Antioxidant, and 11β-HSD Inhibitory Activities” (International Journal of Molecular Sciences, 2023).
# Tests used:
# [1] = target: T1, 11β-HSD2 (Homo sapiens, UniProt P80365); test: Inhibition of 11β-HSD2 (cortisol to cortisone, human microsomes, cortisol ELISA); type: biochemical; details: 2.5 h, 37 °C
# T1 construct: Human liver microsomes were used as a source of 11β-HSD2 enzyme; tissue XenoTech Lot No. 1710160; host or cells: human kidney microsomes, mixed gender (method text says human liver microsomes)
# T1 sequence (P80365 1-405): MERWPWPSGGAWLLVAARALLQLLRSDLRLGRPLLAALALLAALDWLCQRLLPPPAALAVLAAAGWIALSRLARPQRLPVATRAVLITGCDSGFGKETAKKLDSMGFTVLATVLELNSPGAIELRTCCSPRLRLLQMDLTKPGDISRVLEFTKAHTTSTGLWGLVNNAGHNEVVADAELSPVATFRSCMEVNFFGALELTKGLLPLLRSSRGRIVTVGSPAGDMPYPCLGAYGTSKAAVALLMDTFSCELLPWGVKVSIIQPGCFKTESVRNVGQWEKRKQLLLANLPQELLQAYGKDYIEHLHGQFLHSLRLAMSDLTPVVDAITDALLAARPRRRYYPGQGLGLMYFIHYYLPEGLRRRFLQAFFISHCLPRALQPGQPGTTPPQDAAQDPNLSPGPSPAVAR
# Experimental: The resulting solution with a final volume of 100 µL was incubated for 2.5 h at 37 °C. […] The level of unreacted cortisol was measured by a commercially available ELISA kit.
# [2] = tested on: glioma (U-118 MG); test: MTS metabolic activity assay, U-118 MG cells; type: cell-based; details: Homo sapiens, U-118-MG, U118-MG, 72 h, read-out: Cell metabolic activity (MTS), % of untreated control
# Outline: (§1)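 24 h post-seeding → compounds, 72 h → MTS 3 h, light-protected → A590/A620. Untreated = 100%. BJ seeded at 2 × 10^3, others 5 × 10^3 cells/0.32 cm^2.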
# [3] = target: T2, 11β-HSD1 (Homo sapiens, UniProt P28845); test: Inhibition of 11β-HSD1 (cortisone to cortisol, human liver microsomes, cortisol ELISA); type: biochemical
# T2 construct: Human liver microsomes were used as a source of 11β-HSD1 enzyme; tissue XenoTech Lot No. 1410013; host or cells: pooled human liver microsomes, mixed gender
# Outline: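 Human liver microsomal conversion of cortisone to cortisol, incubated 2.5 h at 37 °C and stopped with 18β-glycyrrhetinic acid. Cortisol was quantified by ELISA against inhibitor-free controls.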
# [4] = tested on: BJ cells; test: MTS metabolic activity assay, BJ cells; type: cell-based; details: Homo sapiens, 72 h, read-out: Cell metabolic activity (MTS), % of untreated control
# Outline: as §1
# [5] = tested on: human pancreatic carcinoma (PANC-1); test: MTS metabolic activity assay, PANC-1 cells; type: cell-based; details: Homo sapiens, 72 h, read-out: Cell metabolic activity (MTS), % of untreated control
# Outline: as §1
# [6] = tested on: skin melanoma (SK-MEL-30); test: MTS metabolic activity assay, SK-MEL-30 cells; type: cell-based; details: Homo sapiens, 72 h, read-out: Cell metabolic activity (MTS), % of untreated control
# Outline: as §1
# [7] = tested on: human colon carcinoma (Caco-2); test: MTS metabolic activity assay, Caco-2 cells; type: cell-based; details: 72 h
# Outline: as §1
# [8] = tested on: human breast carcinoma (MDA-MB-231); test: MTS metabolic activity assay, MDA-MB-231 cells; type: cell-based; details: Homo sapiens, 72 h, read-out: Cell metabolic activity (MTS), % of untreated control
# Outline: as §1
# T2 sequence (P28845 whole entry): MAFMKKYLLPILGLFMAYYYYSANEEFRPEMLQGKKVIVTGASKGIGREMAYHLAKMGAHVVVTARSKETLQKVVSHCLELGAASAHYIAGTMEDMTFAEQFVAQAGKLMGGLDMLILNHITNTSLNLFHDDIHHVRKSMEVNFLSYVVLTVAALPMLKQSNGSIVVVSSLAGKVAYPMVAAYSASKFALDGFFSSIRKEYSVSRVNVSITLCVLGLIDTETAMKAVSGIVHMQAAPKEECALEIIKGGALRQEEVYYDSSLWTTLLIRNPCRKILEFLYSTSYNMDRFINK
compound,measurement,setting,value
"O=C1N=C(NC2CCCC2)SC12CCC2 [Compound 3i, 6-(cyclopentylamino)-5-thia-7-azaspiro[3.4]oct-6-en-8-one]",inhibition at 10 µM,[1],46.3 ± 1.22%
same,viability at 10 µM,[2]; 10 µM,107%
same,viability at 20 µM,[2]; 20 µM,108%
same,viability at 50 µM,[2]; 50 µM,111%
same,viability at 100 µM,[2]; 100 µM,109%
same,viability at 200 µM,[2]; 200 µM,112%
same,viability at 300 µM,[2]; 300 µM,109%
same,viability at 500 µM,[2]; 500 µM,108%
same,IC50,[3],1550 ± 100 nM
same,inhibition at 10 µM,"[3]; 10 µM, 2.5 h, 37 °C",71.2 ± 4.77%
same,viability at 10 µM,[4]; 10 µM,102%
same,viability at 20 µM,[4]; 20 µM,104%
same,viability at 50 µM,[4]; 50 µM,105%
same,viability at 100 µM,[4]; 100 µM,111%
same,viability at 200 µM,[4]; 200 µM,116%
same,viability at 300 µM,[4]; 300 µM,121%
same,viability at 500 µM,[4]; 500 µM,115%
same,viability at 10 µM,"[5]; PANC-1, 10 µM",95.4%
same,viability at 20 µM,"[5]; PANC-1, 20 µM",93.3%
same,viability at 50 µM,"[5]; PANC-1, 50 µM",97.3%
same,viability at 100 µM,"[5]; PANC-1, 100 µM",91.4%
same,viability at 200 µM,"[5]; PANC-1, 200 µM",91.2%
same,viability at 300 µM,"[5]; PANC-1, 300 µM",79.7%
same,viability at 500 µM,"[5]; PANC-1, 500 µM",66.6%
same,viability at 10 µM,"[6]; SK-MEL-30, 10 µM",88.1%
same,viability at 20 µM,"[6]; SK-MEL-30, 20 µM",94%
same,viability at 50 µM,"[6]; SK-MEL-30, 50 µM",97.3%
same,viability at 100 µM,"[6]; SK-MEL-30, 100 µM",99%
same,viability at 200 µM,"[6]; SK-MEL-30, 200 µM",101%
same,viability at 300 µM,"[6]; SK-MEL-30, 300 µM",102%
same,viability at 500 µM,"[6]; SK-MEL-30, 500 µM",103%
same,"cell viability, decreases to","[7]; Caco-2, higher concentrations, range given for the most effective substances together",20–65%
same,viability at 10 µM,"[7]; Homo sapiens, Caco-2, 10 µM, read-out: Cell metabolic activity (MTS), % of untreated control",92.2%
same,viability at 20 µM,"[7]; Homo sapiens, Caco-2, 20 µM, read-out: Cell metabolic activity (MTS), % of untreated control",91.2%
same,viability at 50 µM,"[7]; Homo sapiens, Caco-2, 50 µM, read-out: Cell metabolic activity (MTS), % of untreated control",92.9%
same,viability at 100 µM,"[7]; Homo sapiens, Caco-2, 100 µM, read-out: Cell metabolic activity (MTS), % of untreated control",82.5%
same,viability at 200 µM,"[7]; Homo sapiens, Caco-2, 200 µM, read-out: Cell metabolic activity (MTS), % of untreated control",77.5%
same,viability at 300 µM,"[7]; Homo sapiens, Caco-2, 300 µM, read-out: Cell metabolic activity (MTS), % of untreated control",69.8%
same,viability at 500 µM,"[7]; Homo sapiens, Caco-2, 500 µM, read-out: Cell metabolic activity (MTS), % of untreated control",61.5%
same,viability at 10 µM,"[8]; MDA-MB-231, 10 µM",87.2%
same,viability at 20 µM,"[8]; MDA-MB-231, 20 µM",91.2%
same,viability at 50 µM,"[8]; MDA-MB-231, 50 µM",89.6%
same,viability at 100 µM,"[8]; MDA-MB-231, 100 µM",85.1%
same,viability at 200 µM,"[8]; MDA-MB-231, 200 µM",72.5%
same,viability at 300 µM,"[8]; MDA-MB-231, 300 µM",69.3%
same,viability at 500 µM,"[8]; MDA-MB-231, 500 µM",58.7%
